This is an account of results in patent US10906890B2, “Triazole phenyl compounds as agonists of the APJ receptor” (AMGEN INC., priority 2016, dated 2021).

The structures appear in SMILES notation.

The EC50 is the concentration needed to bring the measured effect to its halfway point.

For assay [1], the target named is human APJ-AT1R (angiotensin Type 1) double stable CHO cell line (Homo sapiens (Human), UniProt P35414). Description: IP1 accumulation (TR-FRET) with AngII in APJ-AT1R double stable CHO cells. Type of assay: cell-based. Particulars: fixed concentration of agonist with different concentrations of AngII. On the technique in general: TR-FRET usually uses a lanthanide donor and a delayed reading to cut background.
Sequence of human APJ-AT1R (angiotensin Type 1) double stable CHO cell line (P35414 whole entry): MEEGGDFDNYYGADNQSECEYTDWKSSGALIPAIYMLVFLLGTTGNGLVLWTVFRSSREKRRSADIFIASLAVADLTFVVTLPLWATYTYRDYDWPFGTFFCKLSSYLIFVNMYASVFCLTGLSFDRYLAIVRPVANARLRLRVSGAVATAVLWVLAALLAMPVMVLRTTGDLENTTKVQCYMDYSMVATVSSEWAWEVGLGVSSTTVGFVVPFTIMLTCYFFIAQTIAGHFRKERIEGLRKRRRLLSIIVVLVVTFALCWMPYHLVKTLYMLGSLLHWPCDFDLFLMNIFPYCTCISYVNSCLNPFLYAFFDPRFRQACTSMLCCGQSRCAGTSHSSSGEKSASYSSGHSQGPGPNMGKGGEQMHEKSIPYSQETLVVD
Description: Briefly, the CHO-K1 APJ/AT1R cells were seeded in culture medium of DMEM-F12 and 10% FBS at a density of 15 k/well in a 96 well plate overnight. The next day, the culture medium was replaced with medium containing no serum for 4 hours. The compound AngII at a range of concentrations (1 pM-10 μM) with or without different concentrations of APJ agonists were diluted in stimulation buffer and added to the cell plate. The plate was sealed and incubated for 1 hour. This was followed by addition of IP-d2 conjugate followed by europium cryptate antibody conjugate into the wells. The plate was sealed, followed with incubation for 2 hours at RT. Time-resolved fluorescence resonance energy (TR-FRET) at 620 nm and 665 nm was measured after 2 hours with an Envision reader. The signal ratios and delta F were calculated and the amount of IP1 produced was inversely proportional to the TR-FRET ratio, 665/620 nm.

The subject of assay [2] is Heart failure rat model (MI Rat Model). Nature of the assay: In vivo heart failure (MI) rat model, cardiac contractility. The note with it: heart failure rats in vivo, acute settings, with ACE inhibitor captopril. As to the method: Based on the ex vivo findings in isolated heart assay, APJ agonists were dosed in vivo to investigate the translation of cardiac contractility in in vivo settings. Male Lewis rats (Charles River, USA) at 2-3 months of age were used for the study. Heart failure was induced by permanent ligation of the left descending coronary artery which results in injury to the heart with an ejection fraction of <35%. APJ agonists were administered dose dependently acutely for a period of 30 min. Administration of example compounds lead to an increase in cardiac contractility as measured by dP/dtmax (derivative of left ventricular pressure) (Table 29).

Assay [3] has as its target human APJ receptor (Homo sapiens (Human), UniProt P35414). Nature of the assay: [35S]GTPγS binding assay on membranes from CHO cells stably expressing human APJ receptor. Type of assay: biochemical. Particulars: means of several independent experiments, read-out: Activity hAPJ SPA EC50 IP. The method, boiled down:
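Membranes from CHO cells stably expressing FLAG-tagged human APJ incubated with [35S]GTPγS in buffer with optimized GDP, MgCl2 and NaCl levels, 90 min at RT. Signal read by imaging; EC50 by non-linear regression from means of several independent experiments.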

Sequence of human APJ receptor (P35414 whole entry): as above

Regarding `CCCCc1nc(Cl)c(CO)n1Cc1ccc(-c2ccccc2-c2nn[nH]n2)cc1` [losartan], in assay [1], the “positive cooperativity on AngII IP1 response” value was “relieved this cooperativity”.
On to `C[C@H](CS)C(=O)N1CCC[C@H]1C(=O)O` [Captopril, captopril], for which the “improvement in contractility or ejection fraction” value in assay [2] was “does not show a marked improvement in contractility or ejection fraction”.
For the molecule `COc1ncnc(OC)c1-n1c(NS(=O)(=O)[C@H]2CCCN(c3ncc(C)cn3)C2)nnc1-c1ccccc1` (single isomer, unassigned) [Example 29.0, (S)—N-(4-(4,6-Dimethoxypyrimidin-5-yl)-5-phenyl-4H-1,2,4-triazol-3-yl)-1-(5-methylpyrimidin-2-yl)piperidine-3-sulfonamide or (R)—N-(4-(4,6-dimethoxypyrimidin-5-yl)-5-phenyl-4H-1,2,4-triazol-3-yl)-1-(5-methylpyrimidin-2-yl)piperidine-3-sulfonamide], the EC50 in assay [3] is 390 nM.
